Here are results for seven molecules from publication PMC11676910, “Manganese(II) Complexes with Non-Steroidal Anti-Inflammatory Drugs: Structure and Biological Activity” (International Journal of Molecular Sciences, 2024).

Where two headings read alike, the source gives them in different places. A value given as a limit tells only on which side of the number the result lay.

On the set-up of data set [1]: concentration or dose not given beside the values. Particulars: free NSAID; cited from earlier work.
Data set [2] relates to CT DNA. Particulars: cited from earlier work.
The subject of data set [3] is EB–DNA adduct (CT DNA). The note with it: cited from earlier work.
Data set [4] has as its target T1, human serum albumin (HSA) (Homo sapiens, UniProt P02768). Also noted: purchased Sigma–Aldrich Co. The note with it: cited from earlier work.
The target in data set [5] is T2, bovine serum albumin (BSA) (Bos taurus, UniProt P02769). Details: purchased Sigma–Aldrich Co. Particulars: cited from earlier work.
Data set [6] deals with CT DNA. In words: CT DNA binding by UV-vis spectroscopy titration. Also noted: species or system calf. The note with it: on addition of CT DNA.
A short description of data set [7]: Solubility of the complexes. The class given is physicochemical.
The target in data set [8] is T2, bovine serum albumin (BSA). The data set is described as follows: BSA tryptophan fluorescence quenching.
The subject of data set [9] is EB–DNA adduct (CT DNA). In words: EB displacement from EB–DNA adduct by fluorescence emission spectroscopy. In kind it is binding, calf.
The target of data set [10] is T1, human serum albumin (HSA).
A short description of data set [11]: ABTS radical scavenging assay. The note with it: compound 0.1 mM in DMSO; absorbance at 734 nm 1 min after mixing.

T2 sequence (P02769 25-607): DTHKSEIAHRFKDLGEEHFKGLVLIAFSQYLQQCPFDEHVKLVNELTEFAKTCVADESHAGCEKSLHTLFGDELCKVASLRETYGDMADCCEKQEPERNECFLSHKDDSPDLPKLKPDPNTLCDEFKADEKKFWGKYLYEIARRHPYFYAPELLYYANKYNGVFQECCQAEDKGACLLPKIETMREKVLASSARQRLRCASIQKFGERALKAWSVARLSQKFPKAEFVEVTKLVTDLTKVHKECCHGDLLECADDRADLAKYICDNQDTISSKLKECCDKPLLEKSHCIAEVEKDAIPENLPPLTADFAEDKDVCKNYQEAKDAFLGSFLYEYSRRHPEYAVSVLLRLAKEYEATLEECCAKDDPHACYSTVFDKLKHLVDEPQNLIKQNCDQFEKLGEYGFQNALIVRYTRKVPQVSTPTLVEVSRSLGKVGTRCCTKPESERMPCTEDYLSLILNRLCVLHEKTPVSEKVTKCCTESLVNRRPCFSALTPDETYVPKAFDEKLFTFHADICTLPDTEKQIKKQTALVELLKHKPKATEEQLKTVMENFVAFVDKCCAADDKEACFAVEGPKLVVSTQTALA
T1 sequence (P02768 25-609): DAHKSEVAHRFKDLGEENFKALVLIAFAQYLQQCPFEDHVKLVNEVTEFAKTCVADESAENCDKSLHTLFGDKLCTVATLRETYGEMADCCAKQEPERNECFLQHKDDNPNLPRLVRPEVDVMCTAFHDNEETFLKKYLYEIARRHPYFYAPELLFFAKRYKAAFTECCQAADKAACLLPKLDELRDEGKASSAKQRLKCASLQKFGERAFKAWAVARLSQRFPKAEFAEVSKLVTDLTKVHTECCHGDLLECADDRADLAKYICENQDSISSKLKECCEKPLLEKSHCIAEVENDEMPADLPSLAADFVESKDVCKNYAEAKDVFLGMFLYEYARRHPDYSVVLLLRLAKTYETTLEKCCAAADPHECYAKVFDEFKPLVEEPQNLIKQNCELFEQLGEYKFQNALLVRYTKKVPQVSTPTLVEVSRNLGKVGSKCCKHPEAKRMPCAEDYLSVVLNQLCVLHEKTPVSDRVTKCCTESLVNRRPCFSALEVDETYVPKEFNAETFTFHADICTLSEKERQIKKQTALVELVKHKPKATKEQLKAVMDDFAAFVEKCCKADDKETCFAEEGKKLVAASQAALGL

As to `O=C(O)c1cc(-c2ccc(F)cc2F)ccc1O` [Complex H2difl, diflunisal], the “% ABTS radical scavenging activity (ABTS%)” value in data set [1] is listed as 76.58 ± 0.74%. In addition, the “ΔA/A0 (%) hyper-/hypo-chromism of UV band” value in the data set on CT DNA [2] (first band listed in the cell) is given as “+15%”. Also, in the data set on EB–DNA adduct (CT DNA) [3], the “EB–DNA fluorescence quenching ΔI/Io (%)” value is reported as 65.0%, the “Stern–Volmer constant KSV (EB–DNA)” value is listed as 8.59 (±0.35) × 10^5 M^–1 and the “quenching constant kq of the EB–DNA fluorescence” value is 3.73 (±0.15) × 10^13 M^–1s^–1.
For the molecule `O=C(O)c1ccccc1Nc1cccc(C(F)(F)F)c1` [Hfluf, flufenamic acid], in [4], the “HSA binding constant Κ(HSA)” value is given as 1.79 (±0.17) × 10^5 M^–1 and the “HSA quenching constant kq(HSA)” value is listed as 1.86 (±0.21) × 10^12 M^–1s^–1. Moreover, in data set [1], the “% ABTS radical scavenging activity (ABTS%)” value is 64.57 ± 0.43%. For the same molecule, in the data set with CT DNA [2] (first band listed in the cell), the “ΔA/A0 (%) hyper-/hypo-chromism of UV band” value was “+40%” and the “Δλ (nm) shift of λmax” value was “+10 nm”. Also, in the data set on CT DNA [2] (second band listed in the cell), the “ΔA/A0 (%) hyper-/hypo-chromism of UV band” value was less than −50% and the “Δλ (nm) shift of λmax” value is given as 0 nm. In data set [5], the “BSA binding constant Κ(BSA)” value was 1.06 (±0.04) × 10^6 M^–1 and the “BSA quenching constant kq(BSA)” value is given as 1.83 (±0.20) × 10^13 M^–1s^–1. Further, in the data set with EB–DNA adduct (CT DNA) [3], the “EB–DNA fluorescence quenching ΔI/Io (%)” value was 67.0%, the “Stern–Volmer constant KSV (EB–DNA)” value was 6.34 (±0.30) × 10^5 M^–1 and the “quenching constant kq of the EB–DNA fluorescence” value is reported as 2.76 (±0.13) × 10^13 M^–1s^–1.
For `Cc1cccc(Nc2ccccc2C(=O)O)c1C` [Hmef, mefenamic acid], in data set [4], the “HSA binding constant Κ(HSA)” value is 1.32 (±0.15) × 10^5 M^–1 and the “HSA quenching constant kq(HSA)” value was 7.13 (±0.34) × 10^12 M^–1s^–1. The “% ABTS radical scavenging activity (ABTS%)” value in [1] was 66.32 ± 0.38%. In addition, in the data set on CT DNA [2] (first band listed in the cell), the “ΔA/A0 (%) hyper-/hypo-chromism of UV band” value is “+10%” and the “Δλ (nm) shift of λmax” value is listed as 0 nm. In data set [5], the “BSA binding constant Κ(BSA)” value is 1.35 (±0.22) × 10^5 M^–1 and the “BSA quenching constant kq(BSA)” value was 2.78 (±0.20) × 10^13 M^–1s^–1. Besides, in the data set with EB–DNA adduct (CT DNA) [3], the “EB–DNA fluorescence quenching ΔI/Io (%)” value is given as 80.0%, the “Stern–Volmer constant KSV (EB–DNA)” value is recorded as 1.58 (±0.06) × 10^5 M^–1 and the “quenching constant kq of the EB–DNA fluorescence” value was 6.87 (±0.26) × 10^12 M^–1s^–1.
`Cc1c(Cl)cccc1Nc1ccccc1C(=O)O` [Htolf, tolfenamic acid]: in data set [4], the “HSA binding constant Κ(HSA)” value is reported as 3.12 (±0.25) × 10^5 M^–1 and the “HSA quenching constant kq(HSA)” value was 6.10 (±0.38) × 10^12 M^–1s^–1. In addition, the “% ABTS radical scavenging activity (ABTS%)” value in data set [1] is 59.43 ± 0.33%. In the data set with CT DNA [2] (first band listed in the cell), the “ΔA/A0 (%) hyper-/hypo-chromism of UV band” value is “+40%” and the “Δλ (nm) shift of λmax” value is reported as “+5 nm”. In the data set with CT DNA [2] (second band listed in the cell), the “ΔA/A0 (%) hyper-/hypo-chromism of UV band” value was less than −50% and the “Δλ (nm) shift of λmax” value is given as −2 nm. In data set [5], the “BSA binding constant Κ(BSA)” value was 1.60 (±0.14) × 10^5 M^–1 and the “BSA quenching constant kq(BSA)” value is on record as 2.18 (±0.12) × 10^13 M^–1s^–1. Besides, in the data set with EB–DNA adduct (CT DNA) [3], the “EB–DNA fluorescence quenching ΔI/Io (%)” value was 74.0%, the “Stern–Volmer constant KSV (EB–DNA)” value is reported as 1.15 (±0.04) × 10^6 M^–1 and the “quenching constant kq of the EB–DNA fluorescence” value is recorded as 5.00 (±0.17) × 10^13 M^–1s^–1.
As for `O=C(O)Cc1ccccc1Nc1c(Cl)cccc1Cl` [Na dicl, sodium diclofenac], in [1], the “% ABTS radical scavenging activity (ABTS%)” value is 76.35 ± 0.75%. In addition, the “ΔA/A0 (%) hyper-/hypo-chromism of UV band” value in the data set on CT DNA [2] (first band listed in the cell) was −7.5%. Further, in the data set with EB–DNA adduct (CT DNA) [3], the “EB–DNA fluorescence quenching ΔI/Io (%)” value is listed as 65.0%, the “Stern–Volmer constant KSV (EB–DNA)” value is given as 2.47 (±0.06) × 10^5 M^–1 and the “quenching constant kq of the EB–DNA fluorescence” value was 1.07 (±0.03) × 10^13 M^–1s^–1.
`Cc1ccc(Cl)c(Nc2ccccc2C(=O)O)c1Cl` [Na meclf, sodium meclofenamate]: in data set [4], the “HSA binding constant Κ(HSA)” value is 1.05 (±0.03) × 10^6 M^–1 and the “HSA quenching constant kq(HSA)” value is listed as 2.98 (±0.31) × 10^13 M^–1s^–1. For the same molecule, the “% ABTS radical scavenging activity (ABTS%)” value in data set [1] was 59.48 ± 0.06%. In the data set on CT DNA [2] (first band listed in the cell), the “ΔA/A0 (%) hyper-/hypo-chromism of UV band” value is listed as −12% and the “Δλ (nm) shift of λmax” value was −1 nm. In addition, in the data set on CT DNA [2] (second band listed in the cell), the “ΔA/A0 (%) hyper-/hypo-chromism of UV band” value is “+5%” and the “Δλ (nm) shift of λmax” value is −2 nm. Also, in data set [5], the “BSA binding constant Κ(BSA)” value is reported as 1.78 (±0.11) × 10^6 M^–1 and the “BSA quenching constant kq(BSA)” value is recorded as 4.84 (±0.32) × 10^13 M^–1s^–1. Also, in the data set with EB–DNA adduct (CT DNA) [3], the “EB–DNA fluorescence quenching ΔI/Io (%)” value is 80.1%, the “Stern–Volmer constant KSV (EB–DNA)” value is on record as 8.20 (±0.26) × 10^4 M^–1 and the “quenching constant kq of the EB–DNA fluorescence” value was 3.57 (±0.11) × 10^12 M^–1s^–1.
In the case of “[Μn(mef–O,O’)2(neoc)]∙1.5MeOH∙0.25 H2O [Complex 6]”, the “ΔA/A0 (%) hyper-/hypo-chromism of UV band” value in the data set on CT DNA [6] (first band listed in the cell, + hyperchromism, − hypochromism) is “+3%”; with CT DNA [6] (second band listed in the cell, <−50 = intense hypochromism), “+2%”. Also, the “Δλ (nm) shift of λmax” value was 0 nm in the data set on CT DNA [6] (first band listed in the cell, + red shift, − blue shift) and −2 nm in the data set on CT DNA [6] (second band listed in the cell, elim = elimination). Moreover, the solubility entry in data set [7] is reported as “soluble in DMSO”. Moreover, the “BSA quenching constant kq(BSA)” value in [8] is 1.87 (±0.04) × 10^14 M^–1s^–1. In addition, the “BSA binding constant Κ(BSA)” value in data set [8] (Scatchard equation, BSA 3 μM) is on record as 1.08 (±0.38) × 10^6 M^–1. Moreover, the “relative BSA fluorescence emission intensity (I/Io, %) remaining” value in data set [8] (λem,max = 345 nm, lowest value reached, % of the initial BSA fluorescence) was 5.9%. For the same molecule, the “Stern–Volmer constant KSV (EB–DNA)” value with EB–DNA adduct (CT DNA) [9] ([EB] = 40 μM, [DNA] = 45 μM) is 4.29 (±0.32) × 10^5 M^–1. In the data set with EB–DNA adduct (CT DNA) [9] ([EB] = 40 μM, [DNA] = 45 μM, λexcitation 540 nm), the “EB–DNA fluorescence quenching ΔI/Io (%)” value is 60.6%. In addition, in the data set on EB–DNA adduct (CT DNA) [9] (λemission = 592 nm, lowest value reached, % of the initial EB–DNA fluorescence), the “relative EB–DNA fluorescence intensity (I/Io, %) remaining” value was 39.4%. Besides, the “quenching constant kq of the EB–DNA fluorescence” value in the data set on EB–DNA adduct (CT DNA) [9] (τo = 23 ns) is on record as 1.86 (±0.18) × 10^13 M^–1s^–1. Further, the “HSA binding constant Κ(HSA)” value in [10] (Scatchard equation, HSA 3 μM) was 9.48 (±0.35) × 10^5 M^–1. Besides, the “relative HSA fluorescence emission intensity (I/Io %) remaining” value in [10] (λem,max = 340 nm, lowest value reached, % of the initial HSA fluorescence) stood at 5.6%. The “% ABTS radical scavenging activity (ABTS%)” value in data set [11] was 98.69 ± 0.07%.
